In patent US10604523B2, “1-aryl-4-methyl-[1,2,4]triazolo[4,3-a]quinoxaline derivatives” (Janssen Pharmaceutica NV, priority 2011, dated 2020):
Where two headings read alike, the source gives them in different places.

What was measured:
[1] = target: T1, Rat recombinant PDE10A (rPDE10A2) (Rattus norvegicus, UniProt Q9QYJ6); test: In vitro assay PDE10A (SPA, 3H-cAMP); assay type: biochemical; details: read-out: PIC50 PDE10 (converted)
T1 construct: made in house; host or cells: Sf9 insect cells (baculovirus)
T1 sequence (Q9QYJ6 1-794): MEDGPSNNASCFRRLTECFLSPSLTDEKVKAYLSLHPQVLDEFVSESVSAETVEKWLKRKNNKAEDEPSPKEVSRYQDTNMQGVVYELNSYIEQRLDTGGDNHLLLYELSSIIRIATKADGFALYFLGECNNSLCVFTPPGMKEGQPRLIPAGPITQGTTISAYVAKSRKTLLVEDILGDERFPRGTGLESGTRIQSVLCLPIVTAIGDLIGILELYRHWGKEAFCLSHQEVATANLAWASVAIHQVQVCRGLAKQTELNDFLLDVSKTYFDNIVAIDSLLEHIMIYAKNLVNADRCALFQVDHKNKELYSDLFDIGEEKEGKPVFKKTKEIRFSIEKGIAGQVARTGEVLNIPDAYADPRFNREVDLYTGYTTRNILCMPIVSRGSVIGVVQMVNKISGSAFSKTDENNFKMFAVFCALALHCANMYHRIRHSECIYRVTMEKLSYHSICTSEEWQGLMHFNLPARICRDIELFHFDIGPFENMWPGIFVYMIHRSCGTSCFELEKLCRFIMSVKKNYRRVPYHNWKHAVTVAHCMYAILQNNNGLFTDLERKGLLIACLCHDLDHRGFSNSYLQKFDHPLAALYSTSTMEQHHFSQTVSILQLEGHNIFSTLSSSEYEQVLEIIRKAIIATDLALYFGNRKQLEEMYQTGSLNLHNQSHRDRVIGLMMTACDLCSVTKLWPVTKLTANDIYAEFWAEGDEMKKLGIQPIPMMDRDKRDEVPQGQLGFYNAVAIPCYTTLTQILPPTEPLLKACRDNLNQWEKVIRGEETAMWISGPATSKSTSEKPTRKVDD

[2] = target: T2, Human recombinant PDE2A (hPDE2A) (Homo sapiens, UniProt O00408); test: In vitro assay PDE2A (SPA, 3H-cGMP); assay type: biochemical; details: read-out: pIC50 PDE2 (converted)
T2 construct: made in house; host or cells: Sf9 insect cells (baculovirus)
T2 sequence (O00408 whole entry): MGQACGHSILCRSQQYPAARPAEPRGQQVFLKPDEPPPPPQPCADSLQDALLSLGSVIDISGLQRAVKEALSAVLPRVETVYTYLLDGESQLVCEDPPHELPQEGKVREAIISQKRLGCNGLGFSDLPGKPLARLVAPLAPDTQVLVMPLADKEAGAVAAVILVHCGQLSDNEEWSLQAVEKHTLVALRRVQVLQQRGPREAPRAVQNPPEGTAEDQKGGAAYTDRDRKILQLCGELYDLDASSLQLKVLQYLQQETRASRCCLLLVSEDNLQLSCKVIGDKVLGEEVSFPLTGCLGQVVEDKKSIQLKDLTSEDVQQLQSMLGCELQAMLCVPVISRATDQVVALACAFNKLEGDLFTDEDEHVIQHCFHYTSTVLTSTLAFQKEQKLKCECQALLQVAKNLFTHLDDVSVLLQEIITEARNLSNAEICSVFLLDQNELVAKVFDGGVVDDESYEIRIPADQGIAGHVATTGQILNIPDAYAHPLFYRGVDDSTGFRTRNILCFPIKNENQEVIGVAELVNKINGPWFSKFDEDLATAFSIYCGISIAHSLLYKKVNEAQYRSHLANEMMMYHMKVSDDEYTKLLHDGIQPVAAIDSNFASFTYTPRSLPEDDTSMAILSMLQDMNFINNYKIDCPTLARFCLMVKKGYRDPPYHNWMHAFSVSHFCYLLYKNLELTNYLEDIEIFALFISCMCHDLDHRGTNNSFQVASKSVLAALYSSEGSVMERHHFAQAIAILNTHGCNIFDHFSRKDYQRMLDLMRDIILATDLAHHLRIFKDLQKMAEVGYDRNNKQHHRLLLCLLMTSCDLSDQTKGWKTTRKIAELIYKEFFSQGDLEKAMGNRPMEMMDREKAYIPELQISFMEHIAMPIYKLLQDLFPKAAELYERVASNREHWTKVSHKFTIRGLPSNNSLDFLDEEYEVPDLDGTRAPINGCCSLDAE

[3] = tested on: Apomorphine-induced agitation; test: Reversal of Apomorphine-induced Agitation in Rats (APO); assay type: in vivo, rat; details: for PO Max effect (cumulative agitation score over 60 min) / SC Max effect (cumulative agitation score over 60 min): apomorphine 1.0 mg/kg i.v.; for PO LAD (lowest active dose) / SC LAD (lowest active dose): lowest dose at which ≥67% tested animals respond; for SC Dose at max effect / SC Max effect (cumulative agitation score over 60 min) / SC LAD (lowest active dose): subcutaneous route
Experimental: Apomorphine (1.0 mg/kg, i.v.)-induced agitation was scored every 5 min over the first hour after injection of apomorphine. The score system was: (3) pronounced, (2) moderate, (1) slight, and (0) absent. […] For the present purpose, the cumulative agitation score over the whole 60-min observation period was used as a measure to describe the maximum effect (Max effect).

[4] = -log IC50 expressed in mol/L, rPDE10A2, 60 nM cAMP

Compound	IC50 [1]	IC50 [2]	IC50 [1, 4]	PO Dose at Max Effect [3]	PO Max effect (cumulative agitation score over 60 min) [3]	PO LAD (lowest active dose) [3]	SC Dose at max effect [3]	SC Max effect (cumulative agitation score over 60 min) [3]	SC LAD (lowest active dose) [3]
COCCNc1ccc2nc(C)c3nnc(-c4ccccc4Cl)n3c2c1 [Compound B-67]	15.5 nM	6.17 nM		10 mg/kg	21	> 10 mg/kg			
Cc1nc2ccc(NCCN3CCOCC3)cc2n2c(-c3ccccc3Cl)nnc12 [Compound B-71]	19.1 nM	6.31 nM					10 mg/kg	15	10 mg/kg
Cc1nc2ccc(CN3CCN(C)CC3)cc2n2c(-c3ccccc3Cl)nnc12 [Compound B-73]		6.76 nM	67.6 nM				10 mg/kg	19	10 mg/kg
COc1ccc(-c2nnc3c(C)nc4ccc(C(=O)NCc5ccccn5)cc4n23)c(Cl)c1 [Compound B-74]	129 nM	6.92 nM		10 mg/kg	21	> 10 mg/kg			
COCC1CN(Cc2ccc3nc(C)c4nnc(-c5ccccc5Cl)n4c3c2)CCO1 (stereo not drawn) [Compound B-75]	63.1 nM	6.92 nM					10 mg/kg	15	2.5 mg/kg
Cc1nc2ccc(CNC3CCOCC3)cc2n2c(-c3ccccc3Cl)nnc12 [Compound B-76]	45.7 nM	7.08 nM					10 mg/kg	16	10 mg/kg
Cc1nc2ccc(C(=O)NCCCc3ccccc3)cc2n2c(-c3ccccc3)nnc12 [Compound B-77]	77.6 nM	7.41 nM		2.5 mg/kg	21	> 2.5 mg/kg			
CCNC(=O)c1ccc2nc(C)c3nnc(-c4ccccc4OC)n3c2c1 [Compound B-78]	93.3 nM	7.59 nM		10 mg/kg	21	> 10 mg/kg			
Cc1nc2ccc(CN3CCC(O)CC3)cc2n2c(-c3ccccc3Cl)nnc12 [Compound B-81]		9.55 nM	37.2 nM				10 mg/kg	19	10 mg/kg
Cc1nc2ccc(C(=O)NCc3ccncc3)cc2n2c(-c3ccccc3)nnc12 [Compound B-83]	102 nM	9.77 nM					2.5 mg/kg	29	> 10 mg/kg
CCOc1ccc(Cl)c(-c2nnc3c(C)nc4ccc(Br)cc4n23)c1 [Compound B-85]	123 nM	10.7 nM		10 mg/kg	21	> 10 mg/kg			
Cc1nc2ccc(CN3CCOC(CCF)C3)cc2n2c(-c3ccccc3Cl)nnc12 (stereo not drawn) [Compound B-89]	50.1 nM	11.7 nM					5 mg/kg	24	> 5 mg/kg
Cc1nc2ccc(CN[C@H]3CC[C@H](O)CC3)cc2n2c(-c3ccccc3Cl)nnc12 [Compound B-90]	50.1 nM	12 nM					10 mg/kg	25	> 10 mg/kg
COCC1CCN(Cc2ccc3nc(C)c4nnc(-c5ccccc5Cl)n4c3c2)C1 (stereo not drawn) [Compound B-94]	64.6 nM	12.9 nM					5 mg/kg	24	> 5 mg/kg
COc1ccc(Cl)c(-c2nnc3c(C)nc4ccc(CN5CCC(F)CC5)cc4n23)c1 [Compound B-97]	77.6 nM	14.1 nM					10 mg/kg	19	10 mg/kg
CCOc1ccc(Cl)c(-c2nnc3c(C)nc4ccc(N5CCN(C)CC5)cc4n23)c1 [Compound B-102]	162 nM	18.2 nM					10 mg/kg	21	> 10 mg/kg
CCOc1ccc(Cl)c(-c2nnc3c(C)nc4ccc(CNc5cccnc5)cc4n23)c1 [Compound B-103]	178 nM	18.6 nM					10 mg/kg	21	> 10 mg/kg
Cc1nc2ccc(C(=O)N(C)Cc3ccccc3)cc2n2c(-c3ccccc3)nnc12 [Compound B-104]	204 nM	19.1 nM					2.5 mg/kg	21	> 2.5 mg/kg

The next lines start with results.

IC50 [1]	IC50 [2]	IC50 [1, 4]	Compound	PO Dose at Max Effect [3]	PO Max effect (cumulative agitation score over 60 min) [3]	PO LAD (lowest active dose) [3]	SC Dose at max effect [3]	SC Max effect (cumulative agitation score over 60 min) [3]	SC LAD (lowest active dose) [3]
36.3 nM	20.4 nM		Cc1nc2ccc(C(=O)NCc3ccccn3)cc2n2c(-c3ccc(Cl)cc3Cl)nnc12 [Compound B-108]	10 mg/kg	19	> 10 mg/kg			
33.1 nM	22.9 nM		Cc1nc2ccc(OCCN3CCOCC3)cc2n2c(-c3ccccc3Cl)nnc12 [Compound B-113]				10 mg/kg	8	10 mg/kg
105 nM	24.5 nM		Cc1nc2ccc(CN3CCOC(F)(C(F)(F)F)C3)cc2n2c(-c3ccccc3Cl)nnc12 (stereo not drawn) [Compound B-114]	10 mg/kg	24	> 10 mg/kg			
117 nM	25.7 nM		Cc1ncccc1-c1nnc2c(C)nc3ccc(CN4CCOCC4)cc3n12 [Compound B-118]				10 mg/kg	17	10 mg/kg
145 nM	33.9 nM		CCOc1ccc(Cl)c(-c2nnc3c(C)nc4ccc(OCCc5cccnc5)cc4n23)c1 [Compound B-121]				10 mg/kg	21	> 10 mg/kg
229 nM	28.8 nM		CCOc1ccc(Cl)c(-c2nnc3c(C)nc4ccc(CN5CCC(O)CC5)cc4n23)c1 [Compound B-128]				10 mg/kg	21	> 10 mg/kg
132 nM	29.5 nM		Cc1ncccc1-c1nnc2c(C)nc3ccc(Br)cc3n12 [Compound B-131]	10 mg/kg	17	10 mg/kg			
63.1 nM	34.7 nM		Cc1nc2cc(OCCc3ccccn3)ccc2n2c(-c3ccccc3Cl)nnc12 [Compound B-139]	10 mg/kg	22	> 10 mg/kg			
282 nM	34.7 nM		CCOc1ccc(Cl)c(-c2nnc3c(C)nc4ccc(CN5CCC(F)CC5)cc4n23)c1 [Compound B-140]				10 mg/kg	24	> 10 mg/kg
240 nM	40.7 nM		CCOc1ccc(Cl)c(-c2nnc3c(C)nc4ccc(CN5CCN(C)CC5)cc4n23)c1 [Compound B-145]				10 mg/kg	22	> 10 mg/kg
263 nM	95.5 nM		Cc1ncccc1-c1nnc2c(C)nc3ccc(C(F)(F)F)cc3n12 [Compound B-167]	10 mg/kg	19	10 mg/kg			
174 nM	97.7 nM		Cc1ncccc1-c1nnc2c(C)nc3ccc(OC(F)(F)F)cc3n12 [Compound B-168]	10 mg/kg	16	10 mg/kg			
